Test results from US6468983B2, “RNase L activators and antisense oligonucleotides effective to treat telomerase-expressing malignancies” (The Cleveland Clinic Foundation, priority 1997, dated 2002).

What was measured:
U373 cells = assay: Viable cell count (trypan blue), daily oligonucleotide plus lipofectamine; type: cell-based, human; conditions: U373, 0.5 micromolar daily plus lipofectamine; for cell viability / viable cell numbers reduced by: 7 days
Procedure: (§1) Cells (10,000/well) were seeded on 96 well tissue culture dishes, and treated every 24 hours. A 10× concentrated mixture of oligonucleotides plus lipofectamine in water was prepared containing 5 micromolar oligonucleotide and 80 microgram per ml lipofectamine™ (Gibco/BRL) and incubated for 10 min at room temperature. Media was removed from the cells, 10 microliters of the oligonucleotide/lipofectamine mixture was added directly to the cultured cells followed by 90 microliters of media plus serum. The media was changed with oligonucleotide/lipofectamine treatments every 24 h. Cells were passaged when the control cells reached confluency, and viable cells were counted after staining with Trypan Blue (GibcoBRL). The numbers of cells treated only with lipofectamine were used as the control to calculate percentages of cell survival or viability.

telomerase RNA (hTR) = assay: RT-PCR for telomerase RNA in oligonucleotide-treated U251-MG cells; type: cell-based, human; conditions: oligonucleotide 5 μM, 5 hours treatment
Procedure: Chimeric oligonucleotides were synthesised on solid supports and purified as described previously (Torrence et al 1993; Lesiak et al 1993; Xiao et al 1994, 1996; Cirino et al 1997). Tumor cells were seeded at 3×10^5 cells/well (3 ml) in 6-well plates and incubated overnight at 37° C. Cells were then treated with oligonucleotides (5 μM). Five hours later total RNA was isolated by using Trizol solution (GIBCO BRL, Grand Island, N.Y.). Expression of telomerase RNA was determined with RT-PCR. The RNA was reverse transcribed into complementary DNA (cDNA) with random oligos used as a primer, and then the cDNA was diluted three times with buffer 10×PCR buffer (Perkin-Elmer, Norwalk, Conn.) at a final concentration of 1:4. The DNA at each dilution was amplified using primers to antisense and sense sequences on opposite sides of the human telomerase RNA sequence, 5′-[…]-3′ (SEQ ID NO:4) and 5′[…]-3′ […], respectively, or to the GAPDH coding sequence, 5′-[…]-3′ […] and 5′[…]-3′ (SEQ ID NO:7), respectively, producing DNA fragments of 400 bp for telomerase cDNA and 508 bp for the GAPDH cDNA, respectively. The PCR went for 30 cycles (94° C., 1 min; 55° C., 1 min; 72° C., 2 min) for telomerase and 30 cycles (94° C., 1 min; 60° C., 1 min; 74° C., 3 min) for GAPDH. The PCR products were analyzed by 1.2% agarose gel electrophoresis and ethidium bromide staining.
Aliquots of U251-MG cells were treated with the “active” oligonucleotide and the two controls for 5 hours. RNA was then prepared from these cells and subjected to RT-PCR to detect telomerase RNA. […] In contrast, telomerase RNA (hTR) was present in cells treated with the control oligonucleotides; spA2-anti-hTR and spA4-anti-(M6)hTR. Thus, hTR could be selectively destroyed in U251-MG cells. Since the RT-PCR assay is not quantitative, it was not possible to assess whether treatment with the spA2-anti-hTR , which has the fully complementary target sequence, had any antisense effect by itself (see below). […]

U251-MG cells = assay: Cell viability assay, trypan blue dye exclusion, oligonucleotide in water every 12 hr; type: cell-based, human; conditions: 5 micromolar every 12 hr; for cell death / effect on viability (in words): 14 days
Procedure: The cytotoxic effect of 2-5A activator antisense complexes on tumor cells was determined using the trypan blue dye exclusion assay. Tumor cells were seeded at 10^4 cells/well (0.1 ml) in 96-well flat-bottomed plates and incubated overnight at 37° C. Then, oligonucleotides (5 micromolar) in water were added into cells every 12 hr. On successive days the cells were harvested and 25% of the total was examined microscopically to determine the percentage of viable cells, another 25% was replated to continue treatment and the remaining 50% were used for the TRAP assay.
Knowing that hTR could be inactivated by the 2-5A antisense treatment, U251-MG cells were treated every 12 hours over a 14 day period with the same three oligonucleotides. 79% of the cells treated with spA4-anti-hTR were killed over the 14 day period with a significant (50%) reduction in cell viability after only 5 days. […] These experiments have since been repeated on a number of occasions with U251-MG cells to test new batches of oligonucleotides, always with the same results. […] Thus, after 14 days from the initial treatment with spA4-anti-hTR, the viability of U251-MG cells, as shown by Trypan-blue exclusion assays, was suppressed in all cases.

[1] = test system: renal cell carcinoma cell line, RCC; assay: Viable cell count, daily oligonucleotide plus lipofectamine; type: cell-based, human; conditions: 0.5 micromolar daily plus lipofectamine, 3 days
Procedure: as §1
Similarly, the viability of the breast cancer cell line, MDA468, was reduced by 64% by SpA4-anti-hTR, while the control oligonucleotides reduced cell viability by <20% (FIG. 6). Viability of the human melanoma cell line, A375, was reduced by 43% in three days by SpA4-anti-hTR, while the control oligonucleotides had no effect (FIG. 7). […] Viability of a third human melanoma cell line, SK-MEL-5, was reduced by 43% by SpA4-anti-hTR, with minimal effects by the control oligonucleotides (FIG. 7). Two prostate tumor cells lines, PC3 and DU145, were suppressed by SpA4-anti-hTR treatments by 45% and 60%, respectively (FIGS. 6 and 10). […] The viability of the malignant glioma cell line, U373, was reduced by about 60% in 3 days, with intermediate effects by the control oligonucleotides (FIG. 6). Therefore, the proliferation and survival of every tumor cell type tested was inhibited by SpA4-anti-hTR. […] In contrast, there was no apoptosis detected in the control cells treated with lipofectamine without oligonucleotide (FIG. 12 upper panel).

U251-MG tumors [2] = assay: Subcutaneous xenografts in nude mice, intratumoral oligonucleotide; type: in vivo, Balb/c nude mice
Procedure: (§2) U251-MG and U373 MG tumor cells (1.0×10^6 cells in 0.1 ml serum free DMEM and 0.1 ml Matrigel) were injected subcutaneously into the right flank of 8-12 week-old female Balb/c nude mice (5 mice for each treatment group). Tumor growth was monitored using calipers every 2- or 3-days. Tumor volume (V) was calculated as (L×W^2)/2, where L=length (mm) and W=width (mm). Oligonucleotide treatment was initiated when the tumors reached an average tumor volume of 60-100 mm^3 (about four to five weeks after injection). Oligonucleotides (5 nmol/20 microliter sterile distilled water) were administered by injecting them directly into the tumor every 24 hr for 7-14 days. Some experiments included lipofectamine at 1 microliter per 20 microliters final volume of oligonucleotide solution. Mice were sacrificed by cervical dislocation the day after the final injection and the tumors were removed, frozen rapidly and 12 μm sections were prepared for histological studies. During all of these experiments, which were approved by the CCF Research Programs Committee, the animals were housed and handled in accordance with the National Institutes of Health guidelines.

U373-MG tumors [3] = assay: as above; type: in vivo, Balb/c nude mice; conditions: 5 nmol intratumoral daily for 7 days
Procedure: as §2

U251-MG tumors [4] = assay: In situ end-labeling (TUNEL) of DNA in subcutaneous xenografts; type: in vivo, nude mice; conditions: 5 nmol every day for 7 days
Text: FIG. 14. In situ end-labeling of DNA in subcutaneous xenografts of nude mice. After treatment with oligonucleotides (5 nmol, every day) for 7 days, the mice were sacrificed and the subcutaneous mass was removed, frozen, and sectioned on a cryostat. The tumor specimens from U251-MG cells were counterstained by hematoxylin and eosin following the TUNEL technique. Arrows show representatives of tumor cells positive for DNA fragmentation (×400). (above) spA4-anti-(M6)hTR, 7 Day; (below) spA4-anti-hTR, 7 Day.
To further determine whether treatment with oligonucleotides induced apoptosis, tumor cells and tissues were stained by the terminal deoxynucleotidyl transferase (TdT)-mediated DUTP nick end labeling (TUNEL) technique using Apo-Tag kit (peroxidase conjugated) (Oncor Inc., Gaithersburg, Md.). The staining of apoptotic cells was done on U373MG cells. Oligonucleotides with lipofectamine was added to the cells every day. The final concentrations were 0.5 micromolar and 8 microgram/ml for oligo and lipofectamine, respectively. […]
U251-MG and U373 MG tumor cells (1.0×10^6 cells in 0.1 ml serum free DMEM and 0.1 ml Matrigel) were injected subcutaneously into the right flank of 8-12 week-old female Balb/c nude mice (5 mice for each treatment group). Tumor growth was monitored using calipers every 2- or 3-days. Tumor volume (V) was calculated as (L×W^2)/2, where L=length (mm) and W=width (mm). […]

U373-MG cells = assay: Combination with cisplatin in vitro, MTT assay; type: cell-based, human
Procedure: (§3) FIG. 17. Effect of combining 2-5A-anti-hTR with cisplatin on malignant glioma U373-MG cells in vitro and in vivo. FIG. 17A Tumor cells were treated with 2-5A-anti-hTR (0.5 μM, every 24 hr) mixed with Lipofectamine (1.0 μl/25 μl DMEM) or cisplatin for three days, and their viability was determined by MTT assay. Values represent the means±S.D. FIG. 17B Tumors from U373-MG cells (1.0×10^6 cells in 0.05 ml serum free DMEM and 0.05 ml matrigel) were established subcutaneously in nude mice. After four or five weeks when the tumors were approximately 60-100 mm^3, spA4-anti-hTR (5 nmol/20 μl sterile distilled water) were administrated directly into the tumors daily for 7 days. Cisplatin (1.0 or 5.0 mg/kg/mice) was administered intraperitoneally on Days 1, 3 and 5. Five Mice were used in each treatment group. Tumor volume was then determined using calipers, and the mean sizes ±S.D. were calculated.
To determine if the anti-malignant glioma cell activity of chemotherapeutic agent, cisplatin, could be enhance with SpA4-anti-hTR, a combination therapy protocol was devised (FIG. 17). The point at which 50% cell death was achieved was using 1 microgram per ml of cisplatin plus 0.5 micromolar of SpA4-anti-hTR; whereas in the absence of SpA4-anti-hTR, >10 micrograms per ml of cisplatin were required to achieve 50% cell death (FIG. 17). […] Furthermore, we determined the effect of combining 2-5A-anti-hTR with cisplatin on U373-MG cells in vitro and in vivo. […] The IC50 of cisplatin was reduced from 10.0 to 1.0 μg/ml by combination of spA4-anti-hTR.

U373-MG tumors [5] = assay: Combination with cisplatin on subcutaneous tumors in nude mice; type: in vivo; conditions: cisplatin 1 or 5 mg/kg i.p. Days 1, 3, 5 combined with spA4-anti-hTR 5 nmol intratumoral daily 7 days, versus cisplatin alone
Procedure: as §3
To determine if the anti-malignant glioma cell activity of chemotherapeutic agent, cisplatin, could be enhance with SpA4-anti-hTR, a combination therapy protocol was devised (FIG. 17). […] Furthermore, we determined the effect of combining 2-5A-anti-hTR with cisplatin on U373-MG cells in vitro and in vivo. […]

| Compound | cell viability / viable cell numbers reduced by (U373 cells) | telomerase RNA (hTR) detected by RT-PCR (telomerase RNA (hTR)) | cell death / effect on viability (in words) (U251-MG cells) | effect on growth/viability (in words) [1] | tumor response (in words) (U251-MG tumors [2]; 14 days treatment) | further results |
| --- | --- | --- | --- | --- | --- | --- |
| Sp5′A(2′p5′A)11-Bu2-5′GCG CGG GGA GCA AAA GCA C3′-3′T5′ (antisense GCGCGGGGAGCAAAAGCAC; 5' 2-5A (A12) via butanediol linkers, 3'-3' T cap, chemistry not fully specified) [spA12-anti-hTR, compound containing twelve 2′,5′-linked adenylyl residues] | – | – | – | – | – | anti-cellular activity compared with spA4-anti-hTR (in words) (U373 cells; after 7 days): considerably more anti-cellular activity |
| Sp5′A(2′p5′A)3-Bu2-5′GCC CGG GGT GCA AAT GCA C3′-3′T5′ [spA4-anti-(M3)hTR] | 76% | – | – | – | – | – |
| Sp5′A2′p5′A2p-[(Bu)p]2-5′GCG CGG GGA GCA AAA GCA C3′-3′T5′ (antisense GCGCGGGGAGCAAAAGCAC; 5' 2-5A dimer via butanediol linkers, 3'-3' T cap, chemistry not fully specified) [spA2-anti-hTR, control with only two 2′,5′-linked adenylyl residues, defective 2-5A] | 42% | present | mild antisense effect | no reduction in viability | lack of response | cells remained viable (U251-MG cells; over the 14 day treatment period): 80% |
| Sp5′A2′p(5′A2p)3-[(Bu)p]25′ GCC CGC GGT GCT AAT GCT C3′-3′T5′ (antisense GCCCGCGGTGCTAATGCTC; 5' tetrameric 2-5A via butanediol linkers, 3'-3' T cap, chemistry not fully specified) [spA4-anti-(M6)hTR, control with functional tetrameric 2-5A and six mismatched nucleotides in the antisense cassette] | 43% | present | little, if any, cell death | no reduction in viability | lack of response | tumor growth (in words) (U251-MG tumors [2]; 5 nmol intratumoral daily for 7 days): continued to increase in size; average net weight of the tumors after treatment (U251-MG tumors [2]; 14 days treatment): 92.0 ± 14.7 mg; increase in tumor size during the treatment period (U251-MG tumors [2]; intratumoral daily for 14 days, relative to starting size): 87%; tumor growth (in words) (U373-MG tumors [3]): continued to increase in size; apoptotic cells observed in tumors (TUNEL) (U251-MG tumors [4]): a few apoptotic cells |
| N.N.[Cl][Pt][Cl] [cisplatin] | – | – | – | – | – | IC50 of cisplatin (U373-MG cells; U373-MG, in combination with spA4-anti-hTR 0.5 μM every 24 hr plus Lipofectamine, three days, MTT): 1.0 µg/mL; cisplatin required to achieve 50% cell death (U373-MG cells; in the absence of SpA4-anti-hTR): > 10 micrograms per ml; cisplatin at which 50% cell death was achieved (U373-MG cells; plus 0.5 micromolar of SpA4-anti-hTR): 1 microgram per ml; cytotoxic effect of cisplatin on subcutaneous tumors (in words) (U373-MG tumors [5]): significantly enhanced |
